Measured values taken from the METLIN SMRT retention time set (Domingo-Almenara et al. 2019).

test: gradient 5% acetonitrile 3 min, to 50% in 2 min, to 85% in 15 min, held 3 min, 100 µL/min; conditions: column: Zorbax Extend-C18 2.1 x 50 mm; eluents: water / acetonitrile, 0.1% formic acid
Outline: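 A Zorbax Extend-C18 column (2.1 × 50 mm, 1.8 μm) run at 100 μL/min with water and acetonitrile, both containing 0.1% formic acid, separated mixtures of ~100 pure standards. The HPLC was coupled to a quadrupole time-of-flight mass spectrometer operated in positive and negative ionization mode, with dead and dwell volumes of 40 μL and 900 μL. Each retention time was taken from a computationally picked adduct peak that was then manually inspected.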

Going from COc1ccccc1-c1noc(Cn2cnc3c(cnn3-c3ccc(Br)cc3)c2=O)n1 to COc1ccc(-c2noc(-c3nn(-c4ccc(C)cc4)ccc3=O)n2)cc1OC, the RP-LC retention time falls from 1060 s to 827 s.

Compared with O=C(NCCc1nc2cccnc2n1-c1ccccc1)c1ccsc1, CC(=O)NCc1nc2ccccc2n1CC(=O)Nc1ccccc1 is lower in RP-LC retention time: 674 s for the first, 600 s for the second.

Compared with COc1ccc(-c2ccnc3nc(C4CCC4)nn23)c(F)c1, COc1ccc(NC(=O)C2CCCN(c3cnc4nccnc4c3)C2)cc1Cl (configuration not stated) is lower in RP-LC retention time: 869 s for the first, 746 s for the second.

First: COC(=O)CNC(=O)NC(Cc1ccc(F)cc1)Cc1ccc2c(c1)OCO2 (configuration not stated)
Second: CN(CCc1noc(COc2ccc(F)cc2)n1)C(=O)Nc1ccccc1
The RP-LC retention time of the first is lower: 834 s for the first, 856 s for the second.

Going from CCN1CCCc2cc(C(=O)NC3CCCCC3)sc21 to Cc1ccc(NC(=O)C2CCCN(c3ncnc4c3nc3n4CCCCC3)C2)c(Cl)c1 (configuration not stated), the RP-LC retention time falls from 1010 s to 855 s.

First: CC(Cc1ccco1)NC(=O)C1CCN(S(=O)(=O)c2ccc3c(c2)NC(=O)CO3)CC1 (configuration not stated)
Second: CCc1ccc(NC(=O)C2CCN(S(=O)(=O)c3cn(C)cn3)CC2)cc1
The RP-LC retention time of the first is lower: 726 s for the first, 734 s for the second.

Compared with O=C(CCc1ccccc1)NC1CCN(c2nnc3ccc(Cl)cn23)CC1, CCOc1ccccc1CNC(=O)c1nnc(-c2ccc(S(=O)(=O)N3CCC(C)CC3)cc2)o1 is higher in RP-LC retention time: 739 s for the first, 1140 s for the second.

Going from O=C(c1cccs1)N1CCN(c2[nH]ncc2-c2ccccc2)CC1 to O=C(CC1CCN(C(=O)c2ccc3oc(-c4ccccc4)nc3c2)CC1)N1CCCC1, the RP-LC retention time falls from 808 s to 782 s.

Compared with CCc1cccc(NS(=O)(=O)c2cc(-c3c(CC)noc3NC(C)=O)ccc2OC)c1, COc1cccc(NC(=O)c2c[nH]c3nc(C)ccc3c2=O)c1 is lower in RP-LC retention time: 807 s for the first, 791 s for the second.

Going from CC1CN(C(=O)COc2ccc3ccccc3c2)c2ccccc2NC1=O (configuration not stated) to COc1ccccc1NC(=O)c1cc2ccccc2cc1O, the RP-LC retention time rises from 825 s to 1060 s.

First: Cc1ccc(NC(=O)Cn2nc(N(C)C)c3ccccc3c2=O)c(Br)c1
Second: CCCN(C)c1nccn2c(=O)n(CC(=O)Nc3ccc(C)cc3F)nc12
The RP-LC retention time of the first is higher: 1010 s for the first, 719 s for the second.

Going from Cc1cnc(C2CN(C(=O)c3ccsc3)C2)n1CC1CC1 to Cc1ccc(NC(=O)Cn2ncc3c(c2=O)N(CC2CC2)C(=O)CS3)c(Cl)c1, the RP-LC retention time rises from 595 s to 846 s.

First: COc1ccc(C2C(C(=O)NCc3ccco3)c3ccccc3C(=O)N2C)cc1 (configuration not stated)
Second: COc1ccc(Cn2c(C)c(CNCCc3ccco3)c(C(=O)O)c2C)cc1
The RP-LC retention time of the first is higher: 776 s for the first, 704 s for the second.

First: CCOc1ccc(-n2c(N3CCN(C)CC3)nc3cc(C(=O)OC)ccc3c2=O)cc1
Second: COc1ccc(NC(=O)Cn2c(N3CCOCC3)nc(C)cc2=O)cc1
The RP-LC retention time of the first is higher: 645 s for the first, 609 s for the second.

Compared with Cc1cc(C)n(CC(=O)N(C)CC2(C)CCOCC2)n1, Cc1cc(C)c(NC(=O)Cn2nc3c(N(C)C4CCCCC4)nccn3c2=O)c(C)c1 is higher in RP-LC retention time: 612 s for the first, 797 s for the second.

Compared with CCn1cc(C(=O)Nc2ccc(C)cc2)c(S(=O)(=O)N2CCSCC2)n1, CS(=O)(=O)N1CCCc2cc(C(=O)Nc3ccc(Br)cc3)ccc21 is higher in RP-LC retention time: 887 s for the first, 951 s for the second.

Compared with CC(C)CN1C(=O)c2cccn2CC1CNC(=O)C1(c2ccccc2)CC1 (configuration not stated), Cc1cnc(C(=O)NCC2Cn3cccc3C(=O)N2C)cn1 (configuration not stated) is lower in RP-LC retention time: 832 s for the first, 595 s for the second.

Compared with Cc1cc2c(c(=O)n(-c3ccccc3)c(=O)n2CC(=O)Nc2ccccc2C(F)(F)F)n1C, COC(=O)c1c(NC(C)c2ccccc2)c2cccc(Cl)c2[nH]c1=O (configuration not stated) is lower in RP-LC retention time: 904 s for the first, 864 s for the second.

Going from CCCOc1ccc(-c2nnc3sc(-c4ccncc4)nn23)cc1 to CCOc1ccc(N(CC)C(=O)c2nc(N(C)C)c3cnn(C)c3n2)cc1, the RP-LC retention time rises from 642 s to 745 s.

Compared with Cc1ccc(C)c(N(C)C(=O)C2CCCN(c3ncnc4c3nc3n4CCCCC3)C2)c1 (configuration not stated), Cc1oc2ncnc(N3CCOCC3)c2c1C(=O)N1CCCc2ccccc21 is lower in RP-LC retention time: 899 s for the first, 790 s for the second.

Going from COc1cccc(CN2N=C(C(=O)N3CCOCC3)S(=O)(=O)c3cc(Cl)ccc32)c1 to COc1cccc(COC(=O)C2=CN(C)S(=O)(=O)N=C2C)c1, the RP-LC retention time rises from 887 s to 921 s.

Going from Cc1ccc(NC(=O)N2CCC3(CC2)NC(=O)c2ccccc2O3)c(C)c1 to COc1ccc(NC(=O)N2CCC3(CC2)NC(=O)c2ccc(Cl)cc2N3C)cc1OC, the RP-LC retention time falls from 750 s to 734 s.

First: CNS(=O)(=O)c1cccnc1Nc1ccc(F)cc1
Second: O=S(=O)(CCOc1ccc(F)cc1)Nc1ccc(N2CCOCC2)cc1
The RP-LC retention time of the first is higher: 863 s for the first, 767 s for the second.

Going from COc1ccc2c(c1)c(CC(=O)OCC(=O)O)c(C)n2C(=O)c1ccc(Cl)cc1 to CC(C)NC(=O)c1ccc(OCC2CCCN(C(=O)c3ccc(F)cc3Cl)C2)cc1 (configuration not stated), the RP-LC retention time falls from 958 s to 887 s.

First: O=C(CCn1nnc2cc(-c3noc(-c4ccccc4Br)n3)ccc21)N1CCOCC1
Second: CCOc1cc2c(cc1OCC)C1C(C(=O)N3CCOCC3)c3ccccc3C(=O)N1CC2 (configuration not stated)
The RP-LC retention time of the first is higher: 896 s for the first, 744 s for the second.

First: COc1cc(NC(=O)Cc2csc3nc(-c4ccc(C)c(C)c4)cn23)cc(OC)c1
Second: COc1cccc(N2C(=O)C3N=NN(Cc4nc(-c5ccc(C)c(C)c5)no4)C3C2=O)c1 (configuration not stated)
The RP-LC retention time of the first is lower: 772 s for the first, 1030 s for the second.

Going from CCN(CCCNS(=O)(=O)c1ccc2c(c1)CCCC(=O)N2)c1ccccc1 to CC(=O)N1CCc2cc(CNS(=O)(=O)c3ccc(Cl)cc3)ccc21, the RP-LC retention time rises from 618 s to 811 s.

First: CCOC(=O)CC(=O)CSc1ncnc2c1cnn2-c1ccc(F)cc1
Second: COc1ccc(NC(=O)c2nnn(-c3ccc(C)c(F)c3)c2C)cc1Cl
The RP-LC retention time of the first is lower: 985 s for the first, 1040 s for the second.

Compared with Cn1cc(S(=O)(=O)N2CCC(C(=O)N3CCCCC3)CC2)cc1C(=O)N1CCCC1, O=C(c1csc(N2CCCC2)n1)N1CCOCC1 is lower in RP-LC retention time: 688 s for the first, 628 s for the second.

Compared with COc1ccc(CC(=O)NC2CCN(c3cc(-c4ccc(F)cc4)[nH]n3)C2)cc1OC (configuration not stated), COc1cccc(OC)c1OCC(O)CN1CCN(c2ccccc2F)CC1 (configuration not stated) is higher in RP-LC retention time: 670 s for the first, 684 s for the second.

Compared with COC[C@@H]1CN(S(=O)(=O)c2ccccc2C)C[C@H]1c1ccccn1, Cc1nn(C)c(C)c1S(=O)(=O)N1CCC(n2c(C)cnc2-c2ccccc2)C1 (configuration not stated) is lower in RP-LC retention time: 637 s for the first, 618 s for the second.

Going from CCOCCCNC(=O)C1CCN(C2=NS(=O)(=O)C(c3ccc(CC)cc3)=C2C)CC1 to CCCN(CCC)C(=O)C1CCN(C(=O)c2ccccc2Cl)CC1, the RP-LC retention time falls from 810 s to 602 s.

Going from CCC(C)NC(=O)c1c(C)sc2ccn(CC)c(=O)c12 (configuration not stated) to Cc1nn2c(S(=O)(=O)NCc3cccs3)c(C)nc2s1, the RP-LC retention time falls from 709 s to 704 s.

Compared with Cc1nc(-c2ccccc2)nc2c1CCC(=O)N2C(C)C, Cc1ccc(NC(=O)NC(C)C(=O)N2CCc3ccccc32)c(Cl)c1 (configuration not stated) is lower in RP-LC retention time: 1060 s for the first, 967 s for the second.

Going from Cc1cc(C2CCCN2C(=O)Cc2ccc(F)cc2Cl)no1 (configuration not stated) to COc1ccc(Cl)cc1NC(=O)N1CCC(c2cc(N)on2)CC1, the RP-LC retention time falls from 851 s to 760 s.

First: O=C(NCc1ccccn1)c1c[nH]c2ncccc12
Second: CCn1cc(-c2nc(C(=O)Nc3ccccc3F)cs2)c2cccnc21
The RP-LC retention time of the first is lower: 549 s for the first, 1130 s for the second.

Compared with CCc1c(C2CCN(C(=O)c3cc4ccccc4[nH]3)CC2)noc1N, O=C(Nc1cccn2nc(C3CC3)nc12)c1cccs1 is higher in RP-LC retention time: 774 s for the first, 788 s for the second.

First: Cc1ccc(NC(=O)C(=O)NCCCN2CCOCC2)cc1F
Second: Cc1ccc(NC(=O)C2CCCN2S(=O)(=O)c2cc3c(cc2C)NC(=O)C(C)O3)cc1F (configuration not stated)
The RP-LC retention time of the first is lower: 573 s for the first, 860 s for the second.

First: CN1CCN(CCCNC(=O)c2cc(-c3cccnc3)nc3ccc(Br)cc23)CC1
Second: COC(=O)c1ccccc1Nc1c(-c2ccc(SC)cc2)nc2cnccn12
The RP-LC retention time of the first is lower: 542 s for the first, 1070 s for the second.

First: Cc1nc(-c2noc(-c3cccc(F)c3)n2)cn1CC(=O)Nc1ccc(F)cc1
Second: COc1ccc(Cl)c2c(=O)c3c([nH]c12)CCN(CC(=O)Nc1cc(F)ccc1F)C3
The RP-LC retention time of the first is higher: 874 s for the first, 625 s for the second.

First: CC1CCC(NC(=O)c2ccc(Cn3cncn3)cc2)CC1 (configuration not stated)
Second: Nc1ccc(NC(=O)c2ccc(C(F)(F)F)cc2)nc1
The RP-LC retention time of the first is higher: 726 s for the first, 693 s for the second.

First: COc1ccc(Cc2nnc(N)o2)cc1
Second: O=C(COc1ccc(Cl)cc1)Nc1nc2ccc([N+](=O)[O-])cc2s1
The RP-LC retention time of the first is lower: 596 s for the first, 974 s for the second.

First: CC(C)CNC(=O)COc1cccc2ccccc12
Second: Cc1c(Cl)cccc1NC(=O)CCc1ccc2nc[nH]c2c1
The RP-LC retention time of the first is higher: 896 s for the first, 614 s for the second.

Compared with CC1(O)C=CC(=O)C=C1, Cc1noc(C)c1CNC(=O)c1ccc2nc[nH]c2c1 is higher in RP-LC retention time: 551 s for the first, 561 s for the second.

Going from Cc1ccc(Nc2c(-c3ccc(N(C)C)cc3)nc3cnccn23)c(C)c1 to CC(=O)N1CCc2cc(N3CC(C(=O)Nc4cc(C)ccc4C)CC3=O)ccc21 (configuration not stated), the RP-LC retention time falls from 962 s to 717 s.

First: Cc1cccc(CN2CCn3c(nnc3[C@@H]3C[C@@H](O)CN3C)C2)c1
Second: CCC(=O)Nc1c(C)noc1/C=C/c1ccc(S(=O)(=O)Nc2ccc(S(N)(=O)=O)cc2)s1
The RP-LC retention time of the first is lower: 590 s for the first, 719 s for the second.
